Legend:
[1] = tested on: mouse long-term hematopoietic stem cells; test: Combination test with UM171 on mouse long-term hematopoietic stem cells; type: cell-based; details: n=2
Description: The cells after classification were seeded in a 96-well plate. A cell culture medium was prepared by adding Stem Cell Factor (SCF, manufactured by PeproTech, Inc.) and Thrombopoietin (TPO, manufactured by PeproTech, Inc.) to StemSpan SFEM culture medium (manufactured by […] Technologies Inc.) and added in advance to a cell culture 96-well plate (manufactured by BD Biosciences) at 100 μL/well, and the cells sorted with the FACS Aria II cell sorter (BD Biosciences) were then seeded at 10 cells/well.
The test compounds each in the form of 10 mM DMSO solution were diluted with the cell culture medium to a final concentration of 1 μM, and added to the cells seeded after classification through medium exchange to a final volume of 200 μL/well. Thereafter, the cells were cultured in a CO2 incubator under conditions of 37° C. and 5% CO2 for 1 week.
After culture, the cells were stained with the antibodies for the surface markers c-Kit and Sca-1, Ter-119, B220, CD3, CD4, CD8a, Gr-1, and CD11b, and the ratio and post-growth cell count of a KLS fraction (c-Kit^+, Lin^−, Sca-1^+) or an mCherry-positive fraction given with use of a FACS Aria II cell sorter were analyzed by using FlowJo (BD Biosciences). The mCherry-positive fraction is a cell fraction expressing the Hoxb5 gene, and the KLS fraction is a cell fraction being c-Kit-positive, Lin-negative, and Sca-1-positive, and includes hematopoietic stem cells and multipotent progenitor cells as main components.
A DMSO solution of artemether was adjusted with the cell culture medium to three final concentrations (0.1 μM, 1 μM, 10 μM), and a DMSO solution of UM171 was adjusted with the cell culture medium to four final concentrations (0.1 μM, 0.3 μM, 1 μM, 3 μM), and cell culture was performed at n=2 by the same method as in Example 1. The cell culture and evaluation criteria were the same as those in Example 2.

mouse HoxB5 = test: Confirmation test by gene expression of mouse HoxB5 (qRT-PCR); type: cell-based; details: for mGAPDH Ct value / mHoxB5 Ct value: day 7 of culture; for Ct value difference: mHoxB5 minus mGAPDH
Description: Cells cultured in the presence of artemether were evaluated by gene expression of mouse HoxB5. Cells were cultured in the same manner as in Example 3, and the cells after culture were treated with a Single Cell to CT qRT-PCR kit (manufactured by Life Technologies) according to the instruction of the kit. The cells treated were washed once with PBS, a cell-lysing solution was then added thereto, and the resultant was subjected to RNA extraction followed by reverse transcription reaction for cDNA synthesis, amplified through Taqman Gene Expression Assay in 14 cycles, and diluted with 1×TE buffer (pH 8.0). Real-time PCR was performed with the following Taqman probes at 95° C. for 3 seconds and at 60° C. for 30 seconds in 40 cycles to amplify the sample (HoxbB5: Mm00657672 (manufactured by Thermo Fisher Scientific), Gapdh: Mm99999915-g1 (manufactured by Thermo Fisher Scientific)). All the thermal cycler operations were analyzed by using a QuantStudio 6 (manufactured by Applied Biosystems) (Table 5).
From Table 5, we were able to confirm, by allowing the compound to act, the expression of the long-term hematopoietic stem cell marker HoxB5 in cells on day 7 of culture under culture conditions such that the mouse HoxB5 Ct value was 30 or less and the ACT value was 16 or less.

[2] = artemether 0.1 μM + UM171 0.1 μM
[3] = artemether 0.1 μM + UM171 0.3 μM
[4] = artemether 10 μM + UM171 0.1 μM
[5] = artemether 10 μM + UM171 0.3 μM

CO[C@H]1O[C@@H]2O[C@@]3(C)CC[C@H]4[C@H](C)CC[C@@H]([C@H]1C)[C@@]24OO3 [Example 1-30, artemether, reference compound]
KLS-positive rate [1, 2]: 52.0% | Viable cell count [1, 2]: 430.0 cell | mCherry-positive rate [1, 2]: 51.8% | KLS-positive rate [1, 3]: 42.0% | Viable cell count [1, 3]: 257.0 cell | mCherry-positive rate [1, 3]: 78.1% | KLS-positive rate ([1]; artemether 0.1 μM + UM171 1 μM): 93.4% | Viable cell count ([1]; artemether 0.1 μM + UM171 1 μM): 28.5 cell | mCherry-positive rate ([1]; artemether 0.1 μM + UM171 1 μM): 100.0% | KLS-positive rate ([1]; artemether 0.1 μM + UM171 3 μM): 60.6% | Viable cell count ([1]; artemether 0.1 μM + UM171 3 μM): 101.5 cell | mCherry-positive rate ([1]; artemether 0.1 μM + UM171 3 μM): 82.4% | KLS-positive rate ([1]; artemether 1 μM + UM171 0.1 μM): 33.1% | Viable cell count ([1]; artemether 1 μM + UM171 0.1 μM): 269.0 cell | mCherry-positive rate ([1]; artemether 1 μM + UM171 0.1 μM): 96.3% | KLS-positive rate ([1]; artemether 1 μM + UM171 0.3 μM): 48.6% | Viable cell count ([1]; artemether 1 μM + UM171 0.3 μM): 151.0 cell | mCherry-positive rate ([1]; artemether 1 μM + UM171 0.3 μM): 99.1% | KLS-positive rate ([1]; artemether 1 μM + UM171 1 μM): 93.7% | Viable cell count ([1]; artemether 1 μM + UM171 1 μM): 23.0 cell | mCherry-positive rate ([1]; artemether 1 μM + UM171 1 μM): 100.0% | KLS-positive rate ([1]; artemether 1 μM + UM171 3 μM): 67.3% | Viable cell count ([1]; artemether 1 μM + UM171 3 μM): 23.5 cell | mCherry-positive rate ([1]; artemether 1 μM + UM171 3 μM): 100.0% | KLS-positive rate [1, 4]: 56.7% | Viable cell count [1, 4]: 122.0 cell | mCherry-positive rate [1, 4]: 99.6% | KLS-positive rate [1, 5]: 91.1% | Viable cell count [1, 5]: 38.0 cell | mCherry-positive rate [1, 5]: 100.0% | KLS-positive rate ([1]; artemether 10 μM + UM171 1 μM): 95.9% | Viable cell count ([1]; artemether 10 μM + UM171 1 μM): 9.5 cell | mCherry-positive rate ([1]; artemether 10 μM + UM171 1 μM): 100.0% | KLS-positive rate ([1]; artemether 10 μM + UM171 3 μM): 94.7% | Viable cell count ([1]; artemether 10 μM + UM171 3 μM): 19.0 cell | mCherry-positive rate ([1]; artemether 10 μM + UM171 3 μM): 96.9% | mGAPDH Ct value (mouse HoxB5; compound 0.03 μM): 13.12 | mHoxB5 Ct value (mouse HoxB5; compound 0.03 μM): 30.72 | mGAPDH Ct value (mouse HoxB5; compound 0.1 μM): 13.23 | mHoxB5 Ct value (mouse HoxB5; compound 0.1 μM): 30.57 | mGAPDH Ct value (mouse HoxB5; compound 0.3 μM): 14.47 | mHoxB5 Ct value (mouse HoxB5; compound 0.3 μM): 28.79 | mGAPDH Ct value (mouse HoxB5; compound 1 μM): 13.02 | mHoxB5 Ct value (mouse HoxB5; compound 1 μM): 31.18 | mGAPDH Ct value (mouse HoxB5; compound 3 μM): 13.90 | mHoxB5 Ct value (mouse HoxB5; compound 3 μM): 28.99 | mGAPDH Ct value (mouse HoxB5; compound 10 μM): 17.68 | mHoxB5 Ct value (mouse HoxB5; compound 10 μM): 27.62 | Ct value difference (mouse HoxB5; compound 0.03 μM): 17.60 | Ct value difference (mouse HoxB5; compound 0.1 μM): 17.34 | Ct value difference (mouse HoxB5; compound 0.3 μM): 14.31 | Ct value difference (mouse HoxB5; compound 1 μM): 18.16 | Ct value difference (mouse HoxB5; compound 3 μM): 15.10 | Ct value difference (mouse HoxB5; compound 10 μM): 9.94
